Entries after “also recorded” stand apart in the source; their conditions may differ.
Assays:
Na/K ATPase = Na/K ATPase assay (86Rb uptake into red blood cells);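 for all read-outs here: washed human red blood cells in K-free Ringer, test agent preincubated 20 min, then 86Rb uptake over 4 h at 37 °C counted as CPM per tube versus water control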; settings: for effect of hormones on Na/K ATPase activity: doses of 10^-3 to 10^-9 M; for Na/K ATPase activity in erythrocytes: 6-thio inosine and 6-thio guanosine both 1 mM (FIG. 17); for effect of pyrimidines on Na/K ATPase: doses ranging from 10^-3 to 10^-10 M; for effect of equilibrative nucleoside transport inhibitor on purine stimulation of Na/K ATPase: dipyridamole 1 mM, NBTI 10 μM, purine 1 mM (FIGS. 12 and 13); for Na/K ATPase stimulatory activity of adenosine analogs and metabolites: 1 mM (FIG. 4); for effect of phosphate analogs and bases on Na/K ATPase: FIG. 10; for relative effectiveness at stimulating Na/K ATPase: 10^-3 Molar (FIG. 8); for stimulation of Na/K ATPase: human red blood cells, dose response (FIG. 3b, FIG. 8); for stimulation of Na/K ATPase in the presence of ouabain: partial inhibition / sub maximal doses of ouabain (FIG. 9); for effect of adenosine-receptor blocker on stimulation of Na/K ATPase by inosine, adenosine, guanosine, deoxyadenosine or deoxyguanosine: FIG. 11; for effect of adenosine-receptor blocker on adenosine stimulation of Na/K ATPase: equimolar doses added together with adenosine (FIG. 5)
Protocol: Human red blood cells of any group-type were donated for research by the Blood Bank of the University Of Maryland, School of Medicine. Five ml of red cells are washed 3 times in 40 ml of Potassium free Ringers solution (141 mM NaCl, 1 mM H2NaPO4, 0.5 mM CaCl2, 1 mM MgSO4, 4.5 mM glucose, 10 mM HEPES pH7.4). 50 μl of washed red cells are added to 220 μl of potassium free Ringers solution. 30, 10, 3 or 1 μl of ultra-filtrate, HPLC (high performance liquid chromatography) fraction, or adenosine, inosine, guanosine, deoxyadenosine, deoxyguanosine, caffeine, aminophylline, dipyridamole, NBTI, 6thioinosine, 6thioguanosine, or EHNA (all in buffer) is added to the mixture and incubated for 20 min. 4 μCi of 86RbCl is added and incubated for 4 hrs at 37° C. The mixture is than washed three times with 4° C. Potassium free Ringers solution and the cells counted in a gamma counter (Packard, Cobra II). Na/K ATPase activity is expressed as the CPM (counts per minute) (CPM/tube*4 hrs). The effects of ultra-filtrate or HPLC fractions on ^86Rb uptake into red cells are compared to equal volumes of either water (control) or, in some cases, 0.01 mM Ouabain (maximal inhibition).

[1] = system: rats in severe hemorrhagic shock; settings: for effect on shock-elevated plasma K^+: 0.5 hr; for Plasma K^+ 0.5 hr after Resuscitation: mean ± SE, N = 7/group; for survival compared to saline and cytidine controls (Kaplan-Meier): single dose of 2.5 mM in saline, 8 rats/group, p<0.001
Protocol: Pentobarbital-anesthetized rats were subjected to severe hemorrhagic shock. Five groups of eight rats were resuscitated.
Plasma K^+ was measured from plasma taken before hemorrhage, before resuscitation and 0.5 hrs after resuscitation using a K^+ electrode (Jenco Electronics, Inc., San Diego, Calif.). Survival time between groups was compared by Kaplan-Meier survival Analysis.

[2] = system: rats in severe hemorrhagic shock; assay: Rat shock model for adenosine experiments (0.5 mM adenosine resuscitation); format: in vivo
Protocol: It was hypothesized that stimulation of Na/K ATPase with adenosine may reverse, alleviate or attenuate the effects of an endogenous inhibitor that appears during hemorrhagic shock. […] Blood samples (0.5 ml) were taken before hemorrhage, before resuscitation and 1 hr after resuscitation for measurement of plasma K and Na.
All animal procedures are conducted with the authorization of the Institutional Animal Care and Use Committee at the University of Maryland, School of Medicine. […] Blood samples (0.5 ml) were taken before hemorrhage, before resuscitation and 1 hr after resuscitation for measurement of plasma K and Na. Blood was centrifuged 3500 rpm for 2 min, plasma removed and K and Na was measured by flame photometer. Before and after resuscitation potassium (K) was analyzed by Newman Keul post hoc test after ANOVA.

## CNC[C@H](O)c1ccc(O)c(O)c1 [epinephrine]
Na/K ATPase
  effect of hormones on Na/K ATPase activity: had no effect on Na/K ATPase activity

## Nc1nc2c(ncn2[C@@H]2O[C@H](CO)[C@@H](O)[C@H]2O)c(=S)[nH]1 [6-thioguanosine]
Na/K ATPase
  Na/K ATPase activity in erythrocytes: stimulate Na/K ATPase

## Cc1cn([C@H]2C[C@H](O)[C@@H](CO)O2)c(=O)[nH]c1=O [thymidine]
Na/K ATPase
  effect of pyrimidines on Na/K ATPase: had no effect in the assay

## OCCN(CCO)c1nc(N2CCCCC2)c2nc(N(CCO)CCO)nc(N3CCCCC3)c2n1 [dipyridamole]
Na/K ATPase; dipyridamole 1 mM (FIG. 6)
  effect of equilibrative nucleoside transport inhibitor on adenosine stimulation of Na/K ATPase: blocked adenosine stimulation of Na/K ATPase
Na/K ATPase
  effect of equilibrative nucleoside transport inhibitor on purine stimulation of Na/K ATPase: blocked stimulation of Na/K ATPase by any of the five purines tested

## Nc1ccn([C@H]2C[C@H](O)[C@@H](CO)O2)c(=O)n1 [deoxycytidine]
Na/K ATPase
  effect of pyrimidines on Na/K ATPase: had no effect in the assay

## Nc1ncnc2nc[nH]c12 [adenine]
Na/K ATPase
  Na/K ATPase stimulatory activity of adenosine analogs and metabolites: little or no Na/K ATPase stimulatory activity
  effect of phosphate analogs and bases on Na/K ATPase: None of the purine analogs significantly affected Na/K ATPase

## Nc1nc2nc[nH]c2c(=O)[nH]1 [guanine]
Na/K ATPase
  effect of phosphate analogs and bases on Na/K ATPase: None of the purine analogs significantly affected Na/K ATPase

## Insulin
Na/K ATPase
  effect of hormones on Na/K ATPase activity: had no effect on Na/K ATPase activity

## OC[C@H]1O[C@@H](n2cnc3c(S)ncnc32)[C@H](O)[C@@H]1O [6-thioinosine]
Na/K ATPase
  Na/K ATPase activity in erythrocytes: stimulate Na/K ATPase

## Nc1ncnc2c1ncn2[C@@H]1O[C@H](COP(=O)(O)OP(=O)(O)OP(=O)(O)O)[C@@H](O)[C@H]1O [ATP]
Na/K ATPase
  Na/K ATPase stimulatory activity of adenosine analogs and metabolites: little or no Na/K ATPase stimulatory activity

## Nc1ncnc2c1ncn2[C@@H]1O[C@H](CO)[C@@H](O)[C@H]1O [adenosine]
Na/K ATPase
  relative effectiveness at stimulating Na/K ATPase: more effective at stimulating Na/K ATPase than guanosine and inosine
  stimulation of Na/K ATPase: stimulated Na/K ATPase in a dose-dependent manner
  stimulation of Na/K ATPase in the presence of ouabain: this stimulation occurs even in the presence of ouabain
[1]; 2.5 mM in saline
  effect on shock-elevated plasma K^+: lowered the shock-elevated plasma K^+
  Plasma K^+ 0.5 hr after Resuscitation: 3.10 ± 0.20 mM
[1]
  survival compared to saline and cytidine controls (Kaplan-Meier): survived significantly longer than saline or cytidine controls; also recorded: significantly increased survival; also recorded: survived significantly longer
[2]; 1 hr after resuscitation, 0.5 mM
  plasma K after resuscitation: recovery of plasma K to prehemorrhage levels by 1 hr
[2]; at about 70 minutes after resuscitation, 0.5 mM
  survival: 100%
[2]; at about 160 minutes, 0.5 mM
  survival: about 25%
[2]; from 70 to 120 minutes, 0.5 mM
  survival: 85%
[2]; shocked rats, 0.5 mM infusion (about 3 to 4.5 mg/kg)
  bradycardia: caused bradycardia
[2]; single dose 0.5 mM in saline, infusion volume equal to blood lost, p<0.01
  survival compared to saline alone (Kaplan-Meier): significantly prolonged survival

## Nc1ncnc2c1ncn2[C@@H]1O[C@H](COP(=O)(O)O)[C@@H](O)[C@H]1O [AMP]
Na/K ATPase
  Na/K ATPase stimulatory activity of adenosine analogs and metabolites: little or no Na/K ATPase stimulatory activity

## Nc1ncnc2c1ncn2[C@@H]1O[C@H](COP(=O)(O)OP(=O)(O)O)[C@@H](O)[C@H]1O [ADP]
Na/K ATPase
  Na/K ATPase stimulatory activity of adenosine analogs and metabolites: little or no Na/K ATPase stimulatory activity

## Cn1c(=O)c2c(ncn2C)n(C)c1=O [caffeine]
Na/K ATPase
  effect of adenosine-receptor blocker on stimulation of Na/K ATPase by inosine, adenosine, guanosine, deoxyadenosine or deoxyguanosine: Neither of these adenosine-receptor blockers had a significant effect on stimulation of Na/K ATPase
  effect of adenosine-receptor blocker on adenosine stimulation of Na/K ATPase: did not affect the ability of adenosine to stimulate Na/K ATPase

## O=c1[nH]c(=O)c2[nH]c(=O)[nH]c2[nH]1 [uric acid]
Na/K ATPase
  Na/K ATPase stimulatory activity of adenosine analogs and metabolites: little or no Na/K ATPase stimulatory activity

## Nc1nc2c(ncn2[C@@H]2O[C@H](CO)[C@@H](O)[C@H]2O)c(=O)[nH]1 [guanosine]
Na/K ATPase
  relative effectiveness at stimulating Na/K ATPase: both equally effective
  stimulation of Na/K ATPase: stimulated Na/K ATPase in a dose-dependent manner
  stimulation of Na/K ATPase in the presence of ouabain: overcame partial inhibition by ouabain
[1]; 2.5 mM in saline
  bradycardia on resuscitation from hemorrhagic shock: did not cause the bradycardia
  time to 50% mortality: sooner than with inosine
  time to 100% mortality: 200 min
  effect on shock-elevated plasma K^+: lowered the shock-elevated plasma K^+
  Plasma K^+ 0.5 hr after Resuscitation: 3.01 ± 0.15 mM
[1]; rat, in vivo
  adverse effects on resuscitation from hemorrhagic shock: without any adverse effects
[1]
  survival compared to saline and cytidine controls (Kaplan-Meier): survived significantly longer than saline or cytidine controls; also recorded: significantly increased survival; also recorded: survived significantly longer

## CCCCCC[C@@H]([C@@H](C)O)n1cnc2c(N)ncnc21 (racemic) [EHNA, erythrohydroxy3-nonyl-adenine]
Na/K ATPase
  Na/K ATPase activity in erythrocytes: stimulate Na/K ATPase

## N[C@@H](Cc1cc(I)c(Oc2cc(I)c(O)c(I)c2)c(I)c1)C(=O)O [thyroxine]
Na/K ATPase
  effect of hormones on Na/K ATPase activity: had no effect on Na/K ATPase activity

## O=c1[nH]c(=O)c2[nH]cnc2[nH]1 [xanthine]
Na/K ATPase
  Na/K ATPase stimulatory activity of adenosine analogs and metabolites: little or no Na/K ATPase stimulatory activity

## NC[C@H](O)c1ccc(O)c(O)c1 [norepinephrine]
Na/K ATPase
  effect of hormones on Na/K ATPase activity: had no effect on Na/K ATPase activity

## O=c1[nH]cnc2nc[nH]c12 [hypoxanthine]
Na/K ATPase
  Na/K ATPase stimulatory activity of adenosine analogs and metabolites: little or no Na/K ATPase stimulatory activity
  effect of phosphate analogs and bases on Na/K ATPase: None of the purine analogs significantly affected Na/K ATPase

## NCCc1ccc(O)c(O)c1 [dopamine]
Na/K ATPase
  effect of hormones on Na/K ATPase activity: had no effect on Na/K ATPase activity

## NC(=O)CC[C@@H]1NC(=O)[C@H](Cc2ccccc2)NC(=O)[C@H](Cc2ccc(O)cc2)NC(=O)[C@@H](N)CSSC[C@@H](C(=O)N2CCC[C@H]2C(=O)N[C@@H](CCCN=C(N)N)C(=O)NCC(N)=O)NC(=O)[C@H](CC(N)=O)NC1=O [vasopressin]
Na/K ATPase
  effect of hormones on Na/K ATPase activity: had no effect on Na/K ATPase activity

## O=c1ccn([C@@H]2O[C@H](CO)[C@@H](O)[C@H]2O)c(=O)[nH]1 [uridine]
Na/K ATPase
  effect of pyrimidines on Na/K ATPase: had no effect in the assay

## Nc1nc2c(ncn2[C@H]2C[C@H](O)[C@@H](CO)O2)c(=O)[nH]1 [deoxyguanosine]
Na/K ATPase
  stimulation of Na/K ATPase: stimulated Na/K ATPase in a dose-dependent manner
  stimulation of Na/K ATPase in the presence of ouabain: overcame partial inhibition by ouabain

## Nc1ccn([C@@H]2O[C@H](CO)[C@@H](O)[C@H]2O)c(=O)n1 [cytidine, reference compound]
Na/K ATPase
  effect of pyrimidines on Na/K ATPase: had no effect in the assay
[1]; 2.5 mM in saline
  time to 100% mortality: 50 min
  time within which all resuscitated rats died: ≤ 52 min
  effect on shock-elevated plasma K^+: did not lower plasma K^+ concentration
  Plasma K^+ 0.5 hr after Resuscitation: 4.30 ± 0.35 mM
[1]; 2.5 mM in saline (FIG. 15)
  mean arterial blood pressure after resuscitation: mean arterial blood pressure fell earlier

## O=[N+]([O-])c1ccc(CSc2ncnc3c2ncn3[C@@H]2O[C@H](CO)[C@@H](O)[C@H]2O)cc1 [NBTI, S-(4-nitrobenzyl)-6-thioinosine]
Na/K ATPase
  effect of equilibrative nucleoside transport inhibitor on purine stimulation of Na/K ATPase: blocked stimulation of Na/K ATPase by any of the five purines tested

## C[C@@H]1O[C@@H](O[C@H]2C[C@@H](O)[C@]3(CO)[C@H]4[C@H](O)C[C@]5(C)[C@@H](C6=CC(=O)OC6)CC[C@]5(O)[C@@H]4CC[C@]3(O)C2)[C@H](O)[C@H](O)[C@H]1O [ouabain]
Na/K ATPase; FIG. 3a
  inhibition of Na/K ATPase stimulation by the rat plasma ultra-filtrate: inhibited in a dose-dependent manner
Na/K ATPase; FIG. 3c
  inhibition of Na/K ATPase stimulation by adenosine: inhibited in a dose dependent manner
Na/K ATPase; maximal doses of ouabain (FIG. 9)
  inhibition of Na/K ATPase stimulation by inosine, guanosine, deoxyadenosine and deoxyguanosine: inhibited by maximal doses of ouabain

## Nc1ncnc2c1ncn2[C@H]1C[C@H](O)[C@@H](CO)O1 [deoxyadenosine]
Na/K ATPase
  relative effectiveness at stimulating Na/K ATPase: less effective than guanosine and inosine, but more effective than deoxyguanosine
  stimulation of Na/K ATPase: stimulated Na/K ATPase in a dose-dependent manner
  stimulation of Na/K ATPase in the presence of ouabain: overcame partial inhibition by ouabain

## Cn1c(=O)c2[nH]cnc2n(C)c1=O [aminophylline]
Na/K ATPase
  effect of adenosine-receptor blocker on stimulation of Na/K ATPase by inosine, adenosine, guanosine, deoxyadenosine or deoxyguanosine: Neither of these adenosine-receptor blockers had a significant effect on stimulation of Na/K ATPase
  effect of adenosine-receptor blocker on adenosine stimulation of Na/K ATPase: did not affect the ability of adenosine to stimulate Na/K ATPase

Reference: patent US20050187181A1 (University of Maryland, priority 2004, published 2005)
